Experimental data taken from publication PMC5929447 (Oncotarget, 2018).

Columns and labels:
RS4;11 xenograft = RS4;11 xenograft efficacy; assay type: in vivo, mice; details: for Mean TV change: day 17, mean ± s.e.m.; for % T/C: day 17 post treatment start
Experimental: Experiments were performed in SCID/beige female mice from Charles River Laboratories, Massachusetts, USA. Animals, approximately 7-8 weeks of age at the start of the treatment were allowed to acclimate in animal facility with access to food and water ad libitum for 3 days prior to manipulation. Animals were handled in accordance with IACUC regulations and guidelines for experiments performed in the USA and with European and French regulation for the protection of vertebrate animals for experiments performed in France. Animal well-being and behavior, including grooming and ambulation were monitored at least once a day. General health of mice was monitored and mortality recorded daily. Any moribund animals were sacrificed. RS4;11 Acute Lymphoblastic Leukemia cell lines was obtained from ATCC. Toledo (Diffuse Large B-Cell Lymphoma) human cell lines were obtained internally through Bioresources and the Novartis-Cancer Cell Line Encyclopedia. Cells were free of Mycoplasma and murine viral contamination in the IMPACT VIII PCR assay panel ([…] laboratories INC, Westbrook, ME, USA). […] Cells were resuspended in a 1:1 mixture of cold DPBS (Dulbecco's Phosphate-Buffered Saline) and Matrigel^TM (Becton-Dickinson #354234) at a concentration of 3 × 10^7 cells/ml for Toledo cells, and of 1 × 10^7 cells/ml for RS4;11 cells. […] Body weights were recorded and tumors were measured with digital calipers twice to three times a week. Tumor volume was calculated using the formula: length × width^2/2. Percent changes in body weights was calculated as (BWcurrent - BWinitial)/(BWinitial) × 100. Data is presented as percent body weight change from the day of treatment initiation. When tumors reached approximately 200 mm^3 for efficacy studies or 300 mm^3 for pharmacodynamic studies, mice were randomized. […] Mice were treated via oral gavage at 10 ml/kg with the doses and schedules described in the figure. […] Regression = 100 × ΔT/Tinitial if ΔT < 0 where: T = mean tumor burden of the drug-treated group on the final day of the study; ΔT = mean tumor burden of the drug-treated group on the final day of the study - mean tumor burden of the drug-treated group on initial day of dosing; Tinitial = mean tumor burden of the drug-treated group on initial day of dosing; C = mean tumor burden of the control group on the final day of the study; and ΔC = mean tumor burden of the control group on the final day of the study - mean tumor burden of the control group on initial day of dosing. If the tumor volume was less than 14 mm^3 for more than 3 consecutive measurements, animals were considered in complete regression (CR).

RS4;11 cell line = assay: CellTiter-Glo cell viability, RS4;11; assay type: cell-based; details: Homo sapiens, 72 h of treatment
Experimental: Cells were seeded into 96-well plates and treated at 8 points with 1:2 serial dilution of compounds. Cell viability was assessed and assayed for viability using CellTiter-Glo reagent (Promega) following the manufacturer's instructions. Plates were read using Tecan luminescence plate reader. Results were normalized to the viability of cells without compounds (control wells). The IC50 values were calculated using nonlinear regression algorithms in XCell software.

BCL-2/BAX complex = BCL-2/BAX complex (Homo sapiens, UniProt P10415); assay: Co-immunoprecipitation in BCL-2-overexpressing HeLa cells; assay type: cell-based; details: 2 h
Chain of BCL-2/BAX complex (P10415 whole entry, one chain of several): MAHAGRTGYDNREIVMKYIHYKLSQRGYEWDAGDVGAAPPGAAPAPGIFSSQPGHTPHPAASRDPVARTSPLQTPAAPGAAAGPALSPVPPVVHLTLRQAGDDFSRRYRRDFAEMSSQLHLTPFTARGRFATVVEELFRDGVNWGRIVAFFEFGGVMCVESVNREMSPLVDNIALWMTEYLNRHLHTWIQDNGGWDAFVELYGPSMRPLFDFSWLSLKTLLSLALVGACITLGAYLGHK

Toledo xenograft = Toledo xenograft efficacy; assay type: in vivo, mice; details: day 21; for Mean TV change: mean ± s.e.m.
Experimental: Experiments were performed in SCID/beige female mice from Charles River Laboratories, Massachusetts, USA. Animals, approximately 7-8 weeks of age at the start of the treatment were allowed to acclimate in animal facility with access to food and water ad libitum for 3 days prior to manipulation. Animals were handled in accordance with IACUC regulations and guidelines for experiments performed in the USA and with European and French regulation for the protection of vertebrate animals for experiments performed in France. Animal well-being and behavior, including grooming and ambulation were monitored at least once a day. General health of mice was monitored and mortality recorded daily. Any moribund animals were sacrificed.
RS4;11 Acute Lymphoblastic Leukemia cell lines was obtained from ATCC. Toledo (Diffuse Large B-Cell Lymphoma) human cell lines were obtained internally through Bioresources and the Novartis-Cancer Cell Line Encyclopedia. Cells were free of Mycoplasma and murine viral contamination in the IMPACT VIII PCR assay panel (IDEXX RADIL, IDEXX laboratories INC, Westbrook, ME, USA). Cells used for subcutaneous implantation were cultured in RPMI plus 10% FBS at 37° C in a humidified atmosphere containing 5% carbon dioxide). […] Cells were resuspended in a 1:1 mixture of cold DPBS (Dulbecco's Phosphate-Buffered Saline) and Matrigel™ (Becton-Dickinson #354234) at a concentration of 3 × 10^7 cells/ml for Toledo cells, and of 1 × 10^7 cells/ml for RS4;11 cells.
For each experiment, female SCID/beige mice were implanted subcutaneously (right axillary region) with 3 × 10^6 Toledo or RS4;11 (1 × 10^6 cells for efficacy studies and 1 × 10^7 cells for pharmacodynamics studies) suspended in 1:1 mixture of cold DPBS and Matrigel™ in a total volume of 100 μl. Body weights were recorded and tumors were measured with digital calipers twice to three times a week. Tumor volume was calculated using the formula: length × width^2/2. Percent changes in body weights was calculated as (BWcurrent - BWinitial)/(BWinitial) × 100. Data is presented as percent body weight change from the day of treatment initiation.
When tumors reached approximately 200 mm^3 for efficacy studies or 300 mm^3 for pharmacodynamic studies, mice were randomized. […] Mice were treated via oral gavage at 10 ml/kg with the doses and schedules described in the figure.
For efficacy studies, percent treatment/control (T/C) values were calculated using the following formula: %T/C = 100 × ΔT/ΔC if ΔT > 0. Regression = 100 × ΔT/Tinitial if ΔT < 0 where: T = mean tumor burden of the drug-treated group on the final day of the study; ΔT = mean tumor burden of the drug-treated group on the final day of the study – mean tumor burden of the drug-treated group on initial day of dosing; Tinitial = mean tumor burden of the drug-treated group on initial day of dosing; C = mean tumor burden of the control group on the final day of the study; and ΔC = mean tumor burden of the control group on the final day of the study – mean tumor burden of the control group on initial day of dosing. If the tumor volume was less than 14 mm^3 for more than 3 consecutive measurements, animals were considered in complete regression (CR).

[1] = 100 mg/kg oral daily for 7 days
[2] = 200 mg/kg oral five times a week for 3 weeks
[3] = 300 mg/kg oral five times a week for 3 weeks

IC50 (RS4;11 cell line): 71.6 nM
effect on BCL-2/BAX complex in BCL-2-overexpressing HeLa cells (BCL-2/BAX complex): affects BCL-2/BAX complex
SMILES: O=C(c1cc(-c2cc3c(cc2C(=O)N2Cc4ccccc4C[C@H]2CN2CCOCC2)OCO3)n2c1CCCC2)N(c1ccccc1)c1ccc(O)cc1 [S55746]
Mean TV change (RS4;11 xenograft; 25 mg/kg oral daily for 7 days): 782.38 ± 107.32 mm3
% T/C (RS4;11 xenograft; 25 mg/kg oral daily for 7 days): 67.1 % T/C
Mean TV change (RS4;11 xenograft; 50 mg/kg oral daily for 7 days): 190.50 ± 76.72 mm3
% T/C (RS4;11 xenograft; 50 mg/kg oral daily for 7 days): 16.3 % T/C
complete regression (RS4;11 xenograft; [1]): complete regression observed in all animals
Mean TV change (RS4;11 xenograft; [1]): –98.13 ± 11.62 mm3
% T/C (Toledo xenograft; [2]): 13 % T/C
Mean TV change (Toledo xenograft; [2]): 239.03 ± 67.97 mm3
% T/C (Toledo xenograft; [3]): 2 % T/C
Mean TV change (Toledo xenograft; [3]): 33.16 ± 37.38 mm3
